Source: US20240190854A1, “PYRIMIDINE OR PYRIDINE DERIVATIVES USEFUL AS HCN2 MODULATORS” (King's College London, priority 2021, published 2024)
Counter-ions that a name gives are not always drawn.

How the values were obtained:
HCN2 = HCN2 (Homo sapiens (Human), UniProt Q9UL51); assay: HCN2 current assay using PatchXpress 7000A; format: cell-based; conditions: PatchXpress protocol; read-out: PX HCN2 IC50
Method: (§1) Example 126A, Using PatchXpress 7000A
(§2) Solutions for recording HCN currents were:
The membrane voltage was then stepped back to −30 mV for a further 8 seconds.
(§3) The peak inward current measured at the end of the pulse to −110 mV (HCN1 and HCN2) or −130 mV (HCN4) was measured and any leak current subtracted to calculate the HCN current. The HCN current amplitude was measured after each control or compound addition and normalized to the control amplitude (Control A).
(§4) All experiments were performed at room temperature (approximately 22° C.).
(§5) Each test compound concentration was applied to the cell for seven (7) minutes, at which point the next cumulative concentration was applied.

HCN4 = HCN4 (Homo sapiens (Human), UniProt Q9Y3Q4); assay: HCN4 current assay using PatchXpress 7000A; format: cell-based; conditions: PatchXpress protocol; read-out: PX HCN4 IC50
HCN4, sequence (Q9Y3Q4 whole entry, species assumed): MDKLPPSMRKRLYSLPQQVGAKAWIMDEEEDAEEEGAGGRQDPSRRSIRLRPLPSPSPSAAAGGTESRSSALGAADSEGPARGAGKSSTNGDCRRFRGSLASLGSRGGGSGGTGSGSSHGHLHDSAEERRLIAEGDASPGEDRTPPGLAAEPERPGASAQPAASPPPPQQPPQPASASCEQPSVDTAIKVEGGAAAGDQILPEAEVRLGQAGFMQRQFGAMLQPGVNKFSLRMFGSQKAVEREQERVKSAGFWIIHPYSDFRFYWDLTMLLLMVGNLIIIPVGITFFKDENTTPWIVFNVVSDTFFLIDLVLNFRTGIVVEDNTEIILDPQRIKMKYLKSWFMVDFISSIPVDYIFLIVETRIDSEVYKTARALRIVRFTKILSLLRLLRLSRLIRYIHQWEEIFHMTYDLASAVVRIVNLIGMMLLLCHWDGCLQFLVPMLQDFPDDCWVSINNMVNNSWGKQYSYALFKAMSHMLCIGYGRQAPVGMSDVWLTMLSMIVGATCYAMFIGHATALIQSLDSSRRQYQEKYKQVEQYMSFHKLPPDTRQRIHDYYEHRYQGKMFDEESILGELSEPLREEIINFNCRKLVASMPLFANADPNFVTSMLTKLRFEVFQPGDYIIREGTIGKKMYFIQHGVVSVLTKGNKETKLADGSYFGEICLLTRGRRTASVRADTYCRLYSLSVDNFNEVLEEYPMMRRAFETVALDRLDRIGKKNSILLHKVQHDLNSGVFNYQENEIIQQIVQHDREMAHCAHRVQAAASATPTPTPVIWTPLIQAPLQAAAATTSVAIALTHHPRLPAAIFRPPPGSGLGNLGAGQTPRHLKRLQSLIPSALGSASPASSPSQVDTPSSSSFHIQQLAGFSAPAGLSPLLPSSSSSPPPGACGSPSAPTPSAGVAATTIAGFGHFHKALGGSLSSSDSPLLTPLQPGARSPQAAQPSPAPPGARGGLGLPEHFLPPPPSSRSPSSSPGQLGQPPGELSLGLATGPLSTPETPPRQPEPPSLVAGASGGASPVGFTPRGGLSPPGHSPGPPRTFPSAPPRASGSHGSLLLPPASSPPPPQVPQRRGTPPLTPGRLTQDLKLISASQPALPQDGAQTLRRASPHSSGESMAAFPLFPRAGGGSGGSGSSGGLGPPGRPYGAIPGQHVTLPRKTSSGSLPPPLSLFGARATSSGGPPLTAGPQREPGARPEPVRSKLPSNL
Method: as §1, §2, §3, §4, §5

hERG channel = hERG channel (Homo sapiens (Human), UniProt Q12809); assay: hERG assay using IonWorks Quattro; format: cell-based; conditions: IonWorks protocol; read-out: IW hERG IC50
Method: Example 127A, Using IonWorks Quattro
Solutions for recording hERG currents were:
This was followed by a […] step of is to −30 mV to evoke the hERG tail current. This sequence was repeated 5 times at a frequency of 0.25 Hz (see FIG. 3). Currents were measured from the tail step at the 5th pulse and referenced to the holding current. Compounds were then incubated for 6-7 minutes prior to a second measurement of the hERG signal using an identical pulse train.

hNav1.5 = hNav1.5 (Homo sapiens (Human), UniProt Q14524)
hNav1.5, sequence (Q14524 whole entry): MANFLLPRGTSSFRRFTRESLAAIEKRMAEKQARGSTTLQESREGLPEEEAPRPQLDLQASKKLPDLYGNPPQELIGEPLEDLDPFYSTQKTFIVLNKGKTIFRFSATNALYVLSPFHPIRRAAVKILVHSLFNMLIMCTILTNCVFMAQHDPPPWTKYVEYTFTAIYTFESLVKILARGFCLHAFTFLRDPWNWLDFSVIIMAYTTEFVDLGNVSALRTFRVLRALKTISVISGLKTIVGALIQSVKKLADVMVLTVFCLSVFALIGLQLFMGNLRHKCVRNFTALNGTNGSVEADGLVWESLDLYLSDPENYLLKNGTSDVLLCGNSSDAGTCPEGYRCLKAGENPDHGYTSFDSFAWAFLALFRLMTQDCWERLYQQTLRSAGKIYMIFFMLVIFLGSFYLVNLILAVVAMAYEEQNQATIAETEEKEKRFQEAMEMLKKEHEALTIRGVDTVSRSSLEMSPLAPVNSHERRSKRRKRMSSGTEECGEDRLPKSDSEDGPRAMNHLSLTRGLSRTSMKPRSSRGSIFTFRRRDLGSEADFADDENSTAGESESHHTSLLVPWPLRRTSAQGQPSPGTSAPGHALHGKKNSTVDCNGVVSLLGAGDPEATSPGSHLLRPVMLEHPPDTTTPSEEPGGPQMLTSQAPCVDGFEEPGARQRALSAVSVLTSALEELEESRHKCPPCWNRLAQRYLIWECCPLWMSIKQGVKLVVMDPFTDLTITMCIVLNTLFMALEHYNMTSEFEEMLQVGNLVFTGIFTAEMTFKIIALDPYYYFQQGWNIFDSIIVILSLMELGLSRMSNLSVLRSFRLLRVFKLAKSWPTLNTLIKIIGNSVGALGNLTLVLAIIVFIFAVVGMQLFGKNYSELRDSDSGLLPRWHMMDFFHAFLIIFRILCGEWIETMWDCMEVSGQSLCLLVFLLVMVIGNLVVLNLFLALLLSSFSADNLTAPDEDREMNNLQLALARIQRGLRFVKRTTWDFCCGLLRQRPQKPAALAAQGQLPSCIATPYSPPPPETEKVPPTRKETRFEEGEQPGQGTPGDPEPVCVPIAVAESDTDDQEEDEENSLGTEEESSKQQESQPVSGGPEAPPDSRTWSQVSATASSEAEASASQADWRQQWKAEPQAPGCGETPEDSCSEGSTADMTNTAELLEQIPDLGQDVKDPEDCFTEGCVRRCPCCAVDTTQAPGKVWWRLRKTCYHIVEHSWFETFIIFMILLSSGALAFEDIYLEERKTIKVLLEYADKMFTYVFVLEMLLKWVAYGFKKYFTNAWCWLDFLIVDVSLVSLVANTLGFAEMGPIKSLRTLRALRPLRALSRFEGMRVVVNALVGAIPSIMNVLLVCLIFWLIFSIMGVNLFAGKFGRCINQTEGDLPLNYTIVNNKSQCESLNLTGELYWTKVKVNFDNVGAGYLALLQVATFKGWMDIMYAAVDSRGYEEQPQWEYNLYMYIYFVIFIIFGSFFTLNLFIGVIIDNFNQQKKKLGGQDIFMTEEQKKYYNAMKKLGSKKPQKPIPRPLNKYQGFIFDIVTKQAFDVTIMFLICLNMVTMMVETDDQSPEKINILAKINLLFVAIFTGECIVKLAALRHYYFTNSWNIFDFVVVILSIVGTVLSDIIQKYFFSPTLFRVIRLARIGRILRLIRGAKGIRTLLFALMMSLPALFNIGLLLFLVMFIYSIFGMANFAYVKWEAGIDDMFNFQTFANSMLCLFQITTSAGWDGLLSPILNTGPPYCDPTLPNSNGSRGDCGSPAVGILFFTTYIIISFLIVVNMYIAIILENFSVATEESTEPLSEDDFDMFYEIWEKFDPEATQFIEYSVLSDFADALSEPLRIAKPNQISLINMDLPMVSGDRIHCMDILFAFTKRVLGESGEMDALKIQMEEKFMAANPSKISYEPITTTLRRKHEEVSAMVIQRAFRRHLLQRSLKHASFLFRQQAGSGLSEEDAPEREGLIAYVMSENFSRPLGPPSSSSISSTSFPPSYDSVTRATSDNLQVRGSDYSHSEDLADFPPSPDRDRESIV

HCN2, sequence (Q9UL51 whole entry): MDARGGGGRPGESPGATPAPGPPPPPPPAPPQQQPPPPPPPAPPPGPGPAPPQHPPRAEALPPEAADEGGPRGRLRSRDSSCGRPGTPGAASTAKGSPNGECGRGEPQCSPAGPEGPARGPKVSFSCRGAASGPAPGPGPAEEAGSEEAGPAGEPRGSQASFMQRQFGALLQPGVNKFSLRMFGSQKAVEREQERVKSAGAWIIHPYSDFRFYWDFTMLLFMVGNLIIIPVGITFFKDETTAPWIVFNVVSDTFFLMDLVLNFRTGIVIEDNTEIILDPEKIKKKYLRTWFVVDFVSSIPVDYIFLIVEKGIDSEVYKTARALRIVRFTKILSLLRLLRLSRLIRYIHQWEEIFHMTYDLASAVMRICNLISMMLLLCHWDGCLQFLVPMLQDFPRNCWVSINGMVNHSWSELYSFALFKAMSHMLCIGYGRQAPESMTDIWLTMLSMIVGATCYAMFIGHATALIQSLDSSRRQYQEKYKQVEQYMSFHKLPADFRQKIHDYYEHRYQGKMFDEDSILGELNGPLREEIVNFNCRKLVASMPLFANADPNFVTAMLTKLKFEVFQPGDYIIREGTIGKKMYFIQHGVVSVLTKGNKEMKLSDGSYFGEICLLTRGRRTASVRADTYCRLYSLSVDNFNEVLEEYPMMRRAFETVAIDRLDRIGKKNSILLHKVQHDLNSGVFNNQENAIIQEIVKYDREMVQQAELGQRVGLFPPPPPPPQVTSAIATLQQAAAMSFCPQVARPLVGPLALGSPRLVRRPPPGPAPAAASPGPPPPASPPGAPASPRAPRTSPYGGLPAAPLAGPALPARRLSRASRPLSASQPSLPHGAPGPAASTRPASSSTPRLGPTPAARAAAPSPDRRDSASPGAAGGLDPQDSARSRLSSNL

Structure (SMILES) | IC50 (HCN2) [µM] | IC50 (HCN4) [µM] | IC50 (hERG channel) [µM] | IC50 (hNav1.5) [µM]
N[C@@H](Cc1ccccn1)c1ccccc1-c1noc2cc(CCO)ccc12 [Example 40, (S)-1-[2-(6-[2-Hydroxyethyl]benzo[d]isoxazol-3-yl)phenyl]-2-(pyridine-2-yl)ethan-1-amine] | 15.6 |  | 7.8 | > 33
N[C@@H](Cc1nc(-c2cn[nH]c2)ccc1F)c1ccccc1-c1noc2ccccc12 [Example 78, (S)-1-[2-(Benzo[d]isoxazol-3-yl)phenyl]-2-[3-fluoro-6-(1H-pyrazol-4-yl)pyridin-2-yl)ethan-1-amine hydrochloride] |  | 8.3 | 7.6 | 6.4
NC(=O)c1cccc(C[C@H](N)c2ccccc2-c2noc3ccccc23)n1 [Example 104, (S)-6-{2-Amino-2-[2-(benzo[d]isoxazol-3-yl)phenyl]ethyl}pyridine-2-carboxamide hydrochloride] | 2.6 | 10.4 |  | 
CNC(=O)c1cccc(C[C@H](N)c2ccccc2-c2noc3ccccc23)n1 [Example 105, (S)-6-{2-Amino-2-[2-(benzo[d]isoxazol-3-yl)phenyl]ethyl}-N-methylpyridine-2-carboxamide hydrochloride] | 4.2 | 6.2 |  | 
N[C@@H](Cc1cccc(C(=O)N2CCOCC2)n1)c1ccccc1-c1noc2ccccc12 [Example 106, (S)-(6-{2-Amino-2-[2-(benzo[d]isoxazol-3-yl)phenyl]ethyl}pyridine-2-yl)(morpholino)methanone hydrochloride] | 8.5 | > 30 |  | 
CNC(=O)Nc1cccc(C[C@H](N)c2ccccc2-c2noc3ccccc23)n1 [Example 122, (S)-1-(6-{2-Amino-2-[2-(benzo[d]isoxazol-3-yl)phenyl]ethyl}pyridine-2-yl)-3-methylurea hydrochloride] | 9.5 | 28.1 |  | 
CS(=O)(=O)Nc1cccc(C[C@H](N)c2ccccc2-c2noc3ccccc23)n1 [Example 123, (S)—N-(6-{2-Amino-2-[2-(benzo[d]isoxazol-3-yl)phenyl]ethyl}pyridine-2-yl)methanesulfonamide hydrochloride] | 5.9 | > 30 |  | 

Continued by falling IC50 (HCN2), values first:

IC50 (HCN2) [µM] | IC50 (HCN4) [µM] | Structure (SMILES) | IC50 (hERG channel) [µM] | IC50 (hNav1.5) [µM]
3.5 | 5.1 | COCCNC(=O)c1cccc(C[C@H](N)c2ccccc2-c2noc3ccccc23)n1 [Example 108, (S)-6-{2-[Amino-2-(benzo[d]isoxazol-3-yl)phenyl]ethyl}-N-(2-methoxyethyl)pyridine-2-carboxamide hydrochloride] |  | 
3 | 22.4 | CS(=O)(=O)c1cccc(C[C@H](N)c2ccccc2-c2noc3ccccc23)n1 [Example 103, (S)-1-[2-(Benzo[d]isoxazol-3-yl)phenyl]-2-[6-(methylsulfonyl)pyridin-2-yl]ethan-1-amine] |  | 
2.6 | 15.1 | N#Cc1cccc(C[C@H](N)c2c(F)cccc2-c2noc3ccccc23)n1 [Example 110, (S)-6-{2-Amino-2-[2-(benzo[d]isoxazol-3-yl)-6-fluorophenyl]ethyl}-2-cyanopyridine hydrochloride] |  | > 33
1.7 | > 30 | Cc1ccc2c(-c3ccccc3[C@@H](N)Cc3ccccn3)noc2c1 [Example 33, (S)-1-[2-(6-Methylbenzo[d]isoxazol-3-yl)phenyl]-2-(pyridine-2-yl)ethan-1-amine] | 4.4 | 8.8
1.4 | 3.2 | N[C@@H](Cc1cccc(C(=O)NCC2CC2)n1)c1ccccc1-c1noc2ccccc12 [Example 107, (S)-6-{2-Amino-2-[2-(benzo[d]isoxazol-3-yl)phenyl]ethyl}-N-(cyclopropylmethylpyridine-2-carboxamide hydrochloride] |  | 
1.2 | 7.2 | N[C@@H](Cc1cccc(Br)n1)c1ccccc1-c1noc2ccccc12 [Example 44, (S)-1-[2-(benzo[d]isoxazol-3-yl)phenyl]-2-(6-bromopyridine-2-yl)ethan-1-amine] | 12.8 | 3.7
